Reference: US11117892B2, “Pyrrolo-pyridine derivative compound, method for preparing same, and pharmaceutical composition containing same as active ingredient for prevention or treatment of protein kinase-related diseases” (DAEGU-GYEONGBUK MEDICAL INNOVATION FOUNDATION, priority 2017, dated 2021)

Legend:
Test in all cases: scanMAX Kinase assay panel
Format in all cases: binding
PKN2 = PKN2 (Homo sapiens (Human), UniProt Q16513); settings: read-out: % control
How it was run: (§1)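 The % control figures are compound readings scaled so that DMSO-treated wells correspond to 100% and the positive control corresponds to 0%. They were obtained on the scanMAX kinase panel.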

MYO3B = MYO3B (Homo sapiens (Human), UniProt Q8WXR4); settings: read-out: % control
How it was run: as §1

FLT3(ITD, F691L) = settings: 1 uM
How it was run: as §1

KIT(V559D, V654A) = KIT(V559D, V654A) (Homo sapiens (Human), UniProt P10721, V559D/V654A); settings: read-out: % control
How it was run: as §1

MARK3 = MARK3 (Homo sapiens (Human), UniProt P27448); settings: read-out: % control
How it was run: as §1

[1] = target: RSK4(Kin.Dom.2-C-terminal) (Homo sapiens (Human), UniProt Q9UK32); settings: read-out: % control
How it was run: as §1

CAMK1G = CAMK1G (Homo sapiens (Human), UniProt Q96NX5); settings: read-out: % control
How it was run: as §1

KIT-autoinhibited = KIT-autoinhibited (Homo sapiens (Human), UniProt P10721); settings: read-out: % control
How it was run: as §1

CASK = CASK (Homo sapiens (Human), UniProt O14936); settings: read-out: % control
How it was run: as §1

[2] = target: JAK2(JH1domain-catalytic) (Homo sapiens (Human), UniProt O60674); settings: read-out: % control
How it was run: as §1

ULK2 = ULK2 (Homo sapiens (Human), UniProt Q8IYT8); settings: read-out: % control
How it was run: as §1

[3] = target: ABL1(H396P)-nonphosphorylated (Homo sapiens (Human), UniProt P00519, H396P); settings: read-out: % control
How it was run: as §1

MRCKB = MRCKB (Homo sapiens (Human), UniProt Q9Y5S2); settings: read-out: % control
How it was run: as §1

PIK4CB = PIK4CB (Homo sapiens (Human), UniProt Q9UBF8); settings: read-out: % control
How it was run: as §1

SIK = SIK (Homo sapiens (Human), UniProt P57059); settings: read-out: % control
How it was run: as §1

WEE1 = WEE1 (Homo sapiens (Human), UniProt P30291); settings: read-out: % control
How it was run: as §1

MEK1 = MEK1 (Homo sapiens (Human), UniProt Q02750); settings: read-out: % control
How it was run: as §1

PIK3CA(C420R) = PIK3CA(C420R) (Homo sapiens (Human), UniProt P42336, C420R); settings: read-out: % control
How it was run: as §1

CDC2L1 = CDC2L1 (Homo sapiens (Human), UniProt P21127); settings: read-out: % control
How it was run: as §1

[4] = target: ABL1(F317L)-phosphorylated (Homo sapiens (Human), UniProt P00519, F317L); settings: read-out: % control
How it was run: as §1

SGK3 = SGK3 (Homo sapiens (Human), UniProt Q96BR1); settings: read-out: % control
How it was run: as §1

KIT(A829P) = KIT(A829P) (Homo sapiens (Human), UniProt P10721, A829P); settings: read-out: % control
How it was run: as §1

FGFR1 = FGFR1 (Homo sapiens (Human), UniProt P11362); settings: read-out: % control
How it was run: as §1

PFTAIRE2 = PFTAIRE2 (Homo sapiens (Human), UniProt Q96Q40); settings: read-out: % control
How it was run: as §1

WNK3 = WNK3 (Homo sapiens (Human), UniProt Q9BYP7); settings: read-out: % control
How it was run: as §1

GRK1 = GRK1 (Homo sapiens (Human), UniProt Q15835); settings: read-out: % control
How it was run: as §1

TRKA = TRKA (Homo sapiens (Human), UniProt P04629); settings: read-out: % control
How it was run: as §1

MUSK = MUSK (Homo sapiens (Human), UniProt O15146); settings: read-out: % control
How it was run: as §1

RIPK4 = RIPK4 (Homo sapiens (Human), UniProt P57078); settings: read-out: % control
How it was run: as §1

MAPKAPK5 = MAPKAPK5 (Homo sapiens (Human), UniProt Q8IW41); settings: read-out: % control
How it was run: as §1

MAP3K3 = MAP3K3 (Homo sapiens (Human), UniProt Q99759); settings: read-out: % control
How it was run: as §1

SIK2 = SIK2 (Homo sapiens (Human), UniProt Q9H0K1); settings: read-out: % control
How it was run: as §1

EPHA4 = EPHA4 (Homo sapiens (Human), UniProt P54764); settings: read-out: % control
How it was run: as §1

HIPK3 = HIPK3 (Homo sapiens (Human), UniProt Q9H422); settings: read-out: % control
How it was run: as §1

MST2 = MST2 (Homo sapiens (Human), UniProt Q13188); settings: read-out: % control
How it was run: as §1

RET(M918T) = RET(M918T) (Homo sapiens (Human), UniProt P07949, M918T); settings: read-out: % control
How it was run: as §1

ERN1 = ERN1 (Homo sapiens (Human), UniProt O75460); settings: read-out: % control
How it was run: as §1

YSK1 = YSK1 (Homo sapiens (Human), UniProt O00506); settings: read-out: % control
How it was run: as §1

CDK4 = CDK4 (Homo sapiens (Human), UniProt P11802); settings: read-out: % control
How it was run: as §1

Sequence of EPHA4 (P54764 20-986): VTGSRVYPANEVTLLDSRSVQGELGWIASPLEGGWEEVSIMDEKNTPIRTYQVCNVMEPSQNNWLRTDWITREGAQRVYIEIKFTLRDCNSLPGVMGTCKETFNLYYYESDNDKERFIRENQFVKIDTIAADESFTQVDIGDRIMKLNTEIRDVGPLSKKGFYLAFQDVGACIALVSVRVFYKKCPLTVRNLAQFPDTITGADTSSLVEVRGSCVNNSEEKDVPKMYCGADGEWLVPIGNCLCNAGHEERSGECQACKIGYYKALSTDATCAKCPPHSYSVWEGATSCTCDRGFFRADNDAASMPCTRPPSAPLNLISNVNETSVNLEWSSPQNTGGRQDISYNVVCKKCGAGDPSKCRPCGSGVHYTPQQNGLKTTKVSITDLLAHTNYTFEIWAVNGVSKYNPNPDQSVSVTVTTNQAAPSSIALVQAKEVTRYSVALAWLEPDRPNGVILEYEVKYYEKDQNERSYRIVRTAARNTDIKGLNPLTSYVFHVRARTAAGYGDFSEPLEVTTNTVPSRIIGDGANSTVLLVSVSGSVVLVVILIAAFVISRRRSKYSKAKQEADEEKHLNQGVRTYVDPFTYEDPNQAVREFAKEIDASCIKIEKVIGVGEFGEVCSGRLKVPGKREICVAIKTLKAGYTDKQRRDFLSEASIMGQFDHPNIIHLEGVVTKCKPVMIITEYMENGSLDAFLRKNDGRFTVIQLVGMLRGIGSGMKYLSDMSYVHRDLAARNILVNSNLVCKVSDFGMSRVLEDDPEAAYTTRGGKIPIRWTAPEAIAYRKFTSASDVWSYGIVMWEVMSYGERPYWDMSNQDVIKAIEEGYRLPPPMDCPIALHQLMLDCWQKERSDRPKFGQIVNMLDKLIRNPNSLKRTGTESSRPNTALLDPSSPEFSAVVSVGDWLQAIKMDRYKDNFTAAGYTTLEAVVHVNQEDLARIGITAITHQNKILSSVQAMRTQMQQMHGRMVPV
Sequence of SIK (P57059 whole entry): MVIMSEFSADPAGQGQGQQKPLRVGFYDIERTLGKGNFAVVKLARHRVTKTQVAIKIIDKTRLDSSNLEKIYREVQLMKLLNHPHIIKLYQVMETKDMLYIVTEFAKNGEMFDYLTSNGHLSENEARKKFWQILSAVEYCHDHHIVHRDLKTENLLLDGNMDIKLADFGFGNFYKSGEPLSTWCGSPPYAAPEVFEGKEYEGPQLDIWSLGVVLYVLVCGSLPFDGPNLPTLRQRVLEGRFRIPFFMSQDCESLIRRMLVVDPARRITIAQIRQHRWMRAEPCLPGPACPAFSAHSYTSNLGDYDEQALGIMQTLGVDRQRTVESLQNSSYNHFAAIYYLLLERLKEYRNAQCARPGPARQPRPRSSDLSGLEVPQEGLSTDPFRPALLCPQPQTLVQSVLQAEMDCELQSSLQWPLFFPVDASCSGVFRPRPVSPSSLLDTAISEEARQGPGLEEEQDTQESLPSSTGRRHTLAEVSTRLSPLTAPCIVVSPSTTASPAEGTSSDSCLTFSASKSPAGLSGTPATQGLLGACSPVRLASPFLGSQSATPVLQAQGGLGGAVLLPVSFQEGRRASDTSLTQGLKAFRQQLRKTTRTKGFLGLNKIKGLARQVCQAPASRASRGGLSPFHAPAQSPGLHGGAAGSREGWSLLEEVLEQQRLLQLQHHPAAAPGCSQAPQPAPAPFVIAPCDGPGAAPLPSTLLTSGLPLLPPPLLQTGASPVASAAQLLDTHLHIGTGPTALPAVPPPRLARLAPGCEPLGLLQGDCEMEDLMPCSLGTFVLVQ
Sequence of PIK3CA(C420R) (P42336 whole entry C420R): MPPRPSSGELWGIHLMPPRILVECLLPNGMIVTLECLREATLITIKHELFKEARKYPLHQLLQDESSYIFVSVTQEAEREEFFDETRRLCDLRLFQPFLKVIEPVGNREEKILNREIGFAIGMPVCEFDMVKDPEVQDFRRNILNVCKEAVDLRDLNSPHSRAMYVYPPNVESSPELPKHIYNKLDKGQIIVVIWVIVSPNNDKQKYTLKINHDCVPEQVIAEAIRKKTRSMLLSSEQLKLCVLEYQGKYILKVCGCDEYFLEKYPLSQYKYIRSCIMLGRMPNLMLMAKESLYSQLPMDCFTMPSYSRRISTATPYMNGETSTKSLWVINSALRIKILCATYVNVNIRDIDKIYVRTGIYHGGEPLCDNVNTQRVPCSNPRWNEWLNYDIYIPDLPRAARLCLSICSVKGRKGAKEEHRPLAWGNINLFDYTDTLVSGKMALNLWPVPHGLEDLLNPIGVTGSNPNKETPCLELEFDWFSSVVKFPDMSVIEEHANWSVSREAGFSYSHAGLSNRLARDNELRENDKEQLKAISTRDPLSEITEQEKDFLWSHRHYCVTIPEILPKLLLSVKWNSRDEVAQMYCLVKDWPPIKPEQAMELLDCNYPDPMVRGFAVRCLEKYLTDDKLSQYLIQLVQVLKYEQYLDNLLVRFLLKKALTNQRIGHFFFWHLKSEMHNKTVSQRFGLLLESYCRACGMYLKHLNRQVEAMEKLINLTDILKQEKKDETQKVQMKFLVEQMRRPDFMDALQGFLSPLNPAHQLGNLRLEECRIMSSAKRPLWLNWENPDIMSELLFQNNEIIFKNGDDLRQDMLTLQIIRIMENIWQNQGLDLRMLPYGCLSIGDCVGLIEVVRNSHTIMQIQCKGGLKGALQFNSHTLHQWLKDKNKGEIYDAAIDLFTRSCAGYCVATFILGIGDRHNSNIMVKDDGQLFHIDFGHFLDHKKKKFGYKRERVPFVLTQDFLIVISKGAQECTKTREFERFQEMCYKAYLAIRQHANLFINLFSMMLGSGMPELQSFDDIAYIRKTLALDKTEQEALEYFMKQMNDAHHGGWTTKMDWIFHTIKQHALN
Sequence of PFTAIRE2 (Q96Q40 whole entry): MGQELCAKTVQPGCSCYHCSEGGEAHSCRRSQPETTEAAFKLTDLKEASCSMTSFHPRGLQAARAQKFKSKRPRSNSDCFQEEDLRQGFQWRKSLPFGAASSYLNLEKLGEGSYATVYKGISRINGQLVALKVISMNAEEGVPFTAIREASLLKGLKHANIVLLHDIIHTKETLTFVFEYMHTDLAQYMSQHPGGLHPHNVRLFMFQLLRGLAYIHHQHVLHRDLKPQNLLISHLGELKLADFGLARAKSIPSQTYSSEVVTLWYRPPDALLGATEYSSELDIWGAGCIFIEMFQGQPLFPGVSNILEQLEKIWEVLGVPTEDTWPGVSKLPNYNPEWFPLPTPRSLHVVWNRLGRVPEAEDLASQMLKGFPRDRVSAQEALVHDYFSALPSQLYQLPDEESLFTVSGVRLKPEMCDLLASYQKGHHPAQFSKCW
Sequence of TRKA (P04629 33-796): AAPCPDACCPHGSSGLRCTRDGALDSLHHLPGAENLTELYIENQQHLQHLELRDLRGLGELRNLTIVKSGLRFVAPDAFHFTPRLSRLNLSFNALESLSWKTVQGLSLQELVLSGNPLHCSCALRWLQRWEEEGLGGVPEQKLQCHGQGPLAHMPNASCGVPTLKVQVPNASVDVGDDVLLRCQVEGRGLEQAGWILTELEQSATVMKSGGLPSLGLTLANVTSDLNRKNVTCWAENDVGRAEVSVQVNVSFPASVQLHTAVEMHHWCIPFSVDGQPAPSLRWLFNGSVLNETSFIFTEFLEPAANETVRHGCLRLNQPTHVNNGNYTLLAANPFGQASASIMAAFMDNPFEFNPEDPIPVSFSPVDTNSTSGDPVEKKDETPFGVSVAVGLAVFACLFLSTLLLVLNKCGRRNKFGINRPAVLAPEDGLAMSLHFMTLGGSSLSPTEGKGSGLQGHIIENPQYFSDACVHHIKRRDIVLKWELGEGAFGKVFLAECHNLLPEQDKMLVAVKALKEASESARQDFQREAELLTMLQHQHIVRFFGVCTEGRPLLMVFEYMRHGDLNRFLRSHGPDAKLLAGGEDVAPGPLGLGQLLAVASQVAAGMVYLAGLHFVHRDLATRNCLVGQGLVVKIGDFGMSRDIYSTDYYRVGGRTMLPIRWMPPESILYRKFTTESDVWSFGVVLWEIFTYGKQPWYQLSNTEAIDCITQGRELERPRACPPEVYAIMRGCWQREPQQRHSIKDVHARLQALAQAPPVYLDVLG
Sequence of CDK4 (P11802 whole entry): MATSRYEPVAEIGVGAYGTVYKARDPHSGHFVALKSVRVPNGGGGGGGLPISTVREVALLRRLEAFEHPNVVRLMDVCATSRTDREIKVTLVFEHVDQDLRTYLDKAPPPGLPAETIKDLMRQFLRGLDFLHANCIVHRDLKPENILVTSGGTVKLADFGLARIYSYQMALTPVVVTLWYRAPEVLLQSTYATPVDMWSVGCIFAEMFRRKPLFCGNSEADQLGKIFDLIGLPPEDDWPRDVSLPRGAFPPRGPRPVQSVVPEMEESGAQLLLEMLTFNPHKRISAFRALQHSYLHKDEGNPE
Sequence of KIT-autoinhibited (P10721 544-976 limits assumed): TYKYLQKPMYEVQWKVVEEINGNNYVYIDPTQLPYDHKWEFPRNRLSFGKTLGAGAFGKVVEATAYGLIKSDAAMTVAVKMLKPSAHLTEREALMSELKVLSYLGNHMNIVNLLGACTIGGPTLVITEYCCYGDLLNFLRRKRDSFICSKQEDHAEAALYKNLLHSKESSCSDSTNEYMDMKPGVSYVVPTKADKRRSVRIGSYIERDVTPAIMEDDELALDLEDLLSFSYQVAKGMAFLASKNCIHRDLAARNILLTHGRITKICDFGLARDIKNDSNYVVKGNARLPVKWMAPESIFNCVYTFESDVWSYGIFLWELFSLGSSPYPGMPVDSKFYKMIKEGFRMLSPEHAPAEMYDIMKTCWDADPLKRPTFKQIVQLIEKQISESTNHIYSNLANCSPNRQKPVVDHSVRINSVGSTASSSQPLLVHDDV
Sequence of RSK4(Kin.Dom.2-C-terminal) (Q9UK32 426-683): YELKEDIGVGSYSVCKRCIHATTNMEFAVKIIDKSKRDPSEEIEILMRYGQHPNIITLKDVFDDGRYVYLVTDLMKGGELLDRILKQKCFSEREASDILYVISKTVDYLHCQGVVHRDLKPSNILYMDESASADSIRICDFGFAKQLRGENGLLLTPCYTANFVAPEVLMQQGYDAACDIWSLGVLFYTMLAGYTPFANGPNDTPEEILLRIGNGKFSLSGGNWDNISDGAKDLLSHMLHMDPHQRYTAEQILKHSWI

Compound | remaining binding at 1 µM (PKN2) | remaining binding at 1 µM (MYO3B) | % control (FLT3(ITD, F691L)) | remaining binding at 1 µM (KIT(V559D, V654A)) | remaining binding at 1 µM (MARK3) | remaining binding at 1 µM [1] | remaining binding at 1 µM (CAMK1G) | remaining binding at 1 µM (KIT-autoinhibited) | remaining binding at 1 µM (CASK) | remaining binding at 1 µM [2] | remaining binding at 1 µM (ULK2) | remaining binding at 1 µM [3] | remaining binding at 1 µM (MRCKB) | remaining binding at 1 µM (PIK4CB) | remaining binding at 1 µM (SIK) | remaining binding at 1 µM (WEE1) | remaining binding at 1 µM (MEK1) | remaining binding at 1 µM (PIK3CA(C420R)) | remaining binding at 1 µM (CDC2L1) | remaining binding at 1 µM [4] | other results
CCNc1cc(Nc2ccc(C(=O)N3CCC(N4CCOCC4)CC3)cc2OC)nc2[nH]cc(C#N)c12 [Example 18, 4-(ethylamino)-6-((2-methoxy-4-(4-morpholinopiperidine-1-carbonyl)phenyl)amino)-1H-pyrrolo[2,3-b]pyridine-3-carbonitrile] | 92% | 73% | 46% | 97% | 100% | 71% | 71% | 66% | 76% | 70% | 67% | 89% | 92% | 80% | 100% | 100% | 19% | 87% | 100% | 100% | remaining binding at 1 µM (SGK3): 79%; remaining binding at 1 µM (KIT(A829P)): 99%; remaining binding at 1 µM (FGFR1): 87%; remaining binding at 1 µM (PFTAIRE2): 79%; remaining binding at 1 µM (WNK3): 82%; remaining binding at 1 µM (GRK1): 81%; remaining binding at 1 µM (TRKA): 86%; remaining binding at 1 µM (MUSK): 97%; remaining binding at 1 µM (RIPK4): 69%; remaining binding at 1 µM (MAPKAPK5): 43%; remaining binding at 1 µM (MAP3K3): 70%; remaining binding at 1 µM (SIK2): 87%; remaining binding at 1 µM (EPHA4): 98%; remaining binding at 1 µM (HIPK3): 74%; remaining binding at 1 µM (MST2): 95%; remaining binding at 1 µM (RET(M918T)): 99%; remaining binding at 1 µM (ERN1): 24%; remaining binding at 1 µM (YSK1): 99%; remaining binding at 1 µM (CDK4): 100%
CCNc1cc(Nc2ccc(C(=O)N3CCC(N4CCOCC4)CC3)cc2OC)nc2[nH]cc(C(F)(F)F)c12 [Example 57, (4-((4-(ethylamino)-3-(trifluoromethyl)-1H-pyrrolo[2,3-b]pyridin-6-yl)amino)-3-methoxyphenyl) (4-morpholinopiperidin-1-yl)methanone] | 92% | 83% | 84% | 84% | 92% | 80% | 63% | 100% | 88% | 100% | 93% | 68% | 100% | 100% | 90% | 100% | 100% | 100% | 90% | 100% | remaining binding at 1 µM (SGK3): 100%; remaining binding at 1 µM (KIT(A829P)): 100%; remaining binding at 1 µM (FGFR1): 87%; remaining binding at 1 µM (PFTAIRE2): 94%; remaining binding at 1 µM (WNK3): 100%; remaining binding at 1 µM (GRK1): 94%; remaining binding at 1 µM (TRKA): 100%; remaining binding at 1 µM (MUSK): 100%; remaining binding at 1 µM (RIPK4): 95%; remaining binding at 1 µM (MAPKAPK5): 100%; remaining binding at 1 µM (MAP3K3): 75%; remaining binding at 1 µM (SIK2): 95%; remaining binding at 1 µM (EPHA4): 94%; remaining binding at 1 µM (HIPK3): 71%; remaining binding at 1 µM (MST2): 100%; remaining binding at 1 µM (RET(M918T)): 100%; remaining binding at 1 µM (ERN1): 61%; remaining binding at 1 µM (YSK1): 73%; remaining binding at 1 µM (CDK4): 100%
